Experimental data: ChEMBL document CHEMBL3856234, “Development of Multifunctional Pyrimidinylthiourea Derivatives as Potential Anti-Alzheimer Agents” (J Med Chem, 2016)
Converted amounts (≈) assume the structure as drawn. Blank lines part the entries; values can stand above or below the compound they belong to. The source made the active and inactive calls. No cut-off for these calls is given here.

Tests used:
[1] = molecular target: T1, Acetylcholinesterase (Rattus norvegicus) (UniProt P37136); test: Inhibition of rat cortex AChE at 40 uM using acetylthiocholine iodide as substrate measured after 20 mins by Ellman's method relative to control
T1 sequence (whole entry): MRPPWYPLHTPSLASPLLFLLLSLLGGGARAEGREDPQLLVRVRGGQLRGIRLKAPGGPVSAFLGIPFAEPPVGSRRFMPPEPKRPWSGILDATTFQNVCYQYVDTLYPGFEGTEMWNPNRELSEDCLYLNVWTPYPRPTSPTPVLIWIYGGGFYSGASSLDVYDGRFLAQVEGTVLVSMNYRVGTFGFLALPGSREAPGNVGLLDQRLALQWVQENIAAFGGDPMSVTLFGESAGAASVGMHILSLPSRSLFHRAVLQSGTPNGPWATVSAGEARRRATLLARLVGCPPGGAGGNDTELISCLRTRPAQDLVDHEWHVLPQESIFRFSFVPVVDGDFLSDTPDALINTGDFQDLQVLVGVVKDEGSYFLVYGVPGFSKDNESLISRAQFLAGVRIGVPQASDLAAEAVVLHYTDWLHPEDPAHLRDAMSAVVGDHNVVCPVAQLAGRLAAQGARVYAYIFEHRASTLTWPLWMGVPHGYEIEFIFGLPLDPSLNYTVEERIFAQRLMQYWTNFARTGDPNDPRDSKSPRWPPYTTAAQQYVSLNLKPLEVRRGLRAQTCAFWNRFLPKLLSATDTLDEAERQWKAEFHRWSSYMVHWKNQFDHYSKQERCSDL

Rattus norvegicus [2] = species: Rattus norvegicus; test: Inhibition of rat serum BuChE at 40 uM using butyrylthiocholine as substrate measured after 20 mins by Ellman's method relative to control
Rattus norvegicus [3] = species: Rattus norvegicus; test: Selectivity index, ratio of IC50 for rat serum BuChE to IC50 for rat cortex AChE
[4] = Antioxidant activity assessed as trolox equivalent of AAPH radical scavenging activity preincubated for 10 mins followed by AAPH challenge measured every min for 180 mins by ORAC-FL assay; format: functional
[5] = Permeability of the compound in PBS/EtOH (7:3) buffer measured after 10 hrs by PAMPA assay; format: ADME; conditions: read-out: Peff
Acetylcholinesterase = molecular target: T2, Acetylcholinesterase (Rattus norvegicus, UniProt P37136); test: Inhibition of rat cortex AChE using acetylthiocholine iodide as substrate measured after 20 mins by Ellman's method
T2 sequence (P37136 whole entry): T1 sequence (whole entry)

[6] = Inhibition of rat serum BuChE using butyrylthiocholine as substrate measured after 20 mins by Ellman's method
[7] = Inhibition of cupric ion-induced aggregation of amyloid beta (1 to 42) (unknown origin) at 50 uM measured after 24 hrs by dot blot assay
[8] = Antioxidant activity assessed as inhibition of Cu2+-induced CCA […] to 7-hydroxy-CCA by measuring decrease in hydroxyl radical production at 10 uM in presence of ascorbate by fluorescence assay
SH-SY5Y = test: Neuroprotective activity in human SH-SY5Y cells assessed as protection against Cu2+ induced amyloid-beta (1 to 42) neurotoxicity by measuring increase in cell viability at compound:amyloid-beta (1 to 42):Cu2+ ratio of 2:1:1 after 24 hrs by MTT assay relative to control; format: functional, cell-based
[9] = Inhibition of cupric ion-induced aggregation of amyloid beta (1 to 42) (unknown origin) at compound:amyloid beta (1 to 42):Cu2+ ratio of 2:1:1 measured after 24 hrs by TEM analysis
[10] = Solubility of the compound in water measured after 24 hrs by HPLC analysis; format: physicochemical
[11] = Metal chelating activity assessed as Cu2+-compound complex formation at 40 uM measured after 1 hr by UV-vis spectroscopic analysis; format: physicochemical
[12] = Metal chelating activity assessed as Zn2+-compound complex formation at 40 uM measured after 1 hr by UV-vis spectroscopic analysis; format: physicochemical
[13] = Metal chelating activity assessed as Fe2+-compound complex formation at 40 uM measured after 1 hr by UV-vis spectroscopic analysis; format: physicochemical
[14] = Metal chelating activity assessed as Fe3+-compound complex formation at 40 uM measured after 1 hr by UV-vis spectroscopic analysis; format: physicochemical

SMILES: CCOc1cc(-n2cccn2)ncn1
inhibition [1]: 11.8%

SMILES: CCNC(=S)Nc1cc(-n2cnc(CN(CC)CC)c2)ncn1
inhibition (Rattus norvegicus [2]): 20.2%
Ratio IC50 (Rattus norvegicus [3]): > 348
Activity (umolequiv/umol) [4]: 1.31
Papp at 10 h [5]: 1 ×10⁻⁶ cm/s
IC50 (Acetylcholinesterase): 115 nM
IC50 [6]: > 40000 nM

SMILES: CCNC(=O)Nc1cc(-n2cccn2)ncn1
inhibition [1]: 22.1%

SMILES: CCNC(=S)Nc1cc(-n2cnc(CNC)c2)ncn1
inhibition (Rattus norvegicus [2]): 27.3%
Ratio IC50 (Rattus norvegicus [3]): > 159
Activity (umolequiv/umol) [4]: 1.32
IC50 (Acetylcholinesterase): 251 nM
IC50 [6]: > 40000 nM

SMILES: CCNC(=S)Nc1cc(-n2cnc3ccccc32)ncn1
IC50 (Acetylcholinesterase): 7840 nM
inhibition [1]: 66.2%

SMILES: c1ccc(CNc2cc(-n3cccn3)ncn2)cc1
inhibition [1]: 10.8%

SMILES: CCNC(=S)Nc1cc(-n2cnc(CN3CCN(C)CC3)c2)ncn1
inhibition (Rattus norvegicus [2]): 10.8%
Ratio IC50 (Rattus norvegicus [3]): > 388
Activity (umolequiv/umol) [4]: 1.23
Papp at 10 h [5]: 1.95 ×10⁻⁶ cm/s
IC50 (Acetylcholinesterase): 103 nM
IC50 [6]: > 40000 nM

SMILES: CCNC(=S)Nc1cc(-n2cnc(CN3CCCC3)c2)ncn1
inhibition [7]: Active
inhibition [8]: Active
inhibition (Rattus norvegicus [2]): 33.5%
Ratio IC50 (Rattus norvegicus [3]): > 597
Activity (umolequiv/umol) [4]: 1.2
Activity (SH-SY5Y): Active
inhibition [9]: Active

SMILES: CCNC(=S)Nc1cc(-n2cnc(Br)c2)ncn1
IC50 (Acetylcholinesterase): 975 nM

SMILES: CCNC(=S)Nc1cc(-n2cccn2)ncn1
IC50 (Acetylcholinesterase): 8140 nM
inhibition [1]: 77.3%

SMILES: CCNC(=S)Nc1cc(-n2cnc(CO)c2)ncn1
IC50 (Acetylcholinesterase): 995 nM

SMILES: CCNC(=S)Nc1cc(-n2cnc(CN3CCCC3)c2)ncn1.Cl
solubility at 24 h [10]: 19500 µg/mL

SMILES: CCNC(=S)Nc1cc(-n2cnc(I)c2)ncn1
IC50 (Acetylcholinesterase): 636 nM

SMILES: S=C(Nc1cc(-n2cccn2)ncn1)NC1CCCCC1
inhibition [1]: 11.2%

Activity [11]: Active
Activity [12]: Active
Activity [13]: Active
Activity [14]: Active
SMILES: c1cc(-n2cnc(CN3CCCC3)c2)ncn1
Activity (umolequiv/umol) [4]: -0.01

SMILES: CCNC(=S)Nc1cc(-n2cnc(C=O)c2)ncn1
inhibition (Rattus norvegicus [2]): 4.63%
Ratio IC50 (Rattus norvegicus [3]): > 241
Activity (umolequiv/umol) [4]: 0.31
IC50 (Acetylcholinesterase): 166 nM
IC50 [6]: > 40000 nM

inhibition [9]: Active
SMILES: Oc1c(I)cc(Cl)c2cccnc12

SMILES: CC(C)NC(=S)Nc1cc(-n2cccn2)ncn1
inhibition [1]: 36.2%

SMILES: CCNC(=S)Nc1cc(-n2cnc(CN(C)Cc3ccccc3)c2)ncn1 [listing 1 of 2 here]
solubility at 24 h [10]: 58 µg/mL (≈ 152 µM)
Papp at 10 h [5]: 8.8 ×10⁻⁶ cm/s
IC50 (Acetylcholinesterase): 181 nM
IC50 [6]: 15200 nM

SMILES: CCNC(=S)Nc1cc(-n2cnc(CN(C)Cc3ccccc3)c2)ncn1.Cl
solubility at 24 h [10]: 2740 µg/mL

SMILES: CCNC(=S)Nc1cc(-n2cnc(Cl)c2)ncn1
IC50 (Acetylcholinesterase): 615 nM

SMILES: CCNC(=S)Nc1cc(N2CCOCC2)ncn1
IC50 (Acetylcholinesterase): 23200 nM
inhibition [1]: 54.1%

SMILES: CCNC(=S)Nc1ccnc(-n2ccnc2)n1
IC50 (Acetylcholinesterase): > 40000 nM
inhibition [1]: 46.6%

SMILES: CCCCNC(=S)Nc1cc(-n2cccn2)ncn1
IC50 (Acetylcholinesterase): 23400 nM
inhibition [1]: 66.6%

SMILES: CCNC(=S)Nc1cc(-n2ccnc2C)ncn1
IC50 (Acetylcholinesterase): 6100 nM

SMILES: CCNC(=S)Nc1cc(-n2cnc(CN(C)Cc3ccccc3)c2)ncn1 [listing 2 of 2 here]
Ratio IC50 (Rattus norvegicus [3]): 84
Activity (umolequiv/umol) [4]: 1.25

SMILES: CCNC(=S)Nc1cc(N2CCCC2)ncn1
IC50 (Acetylcholinesterase): > 40000 nM
inhibition [1]: 39.2%

SMILES: CCNC(=S)Nc1cc(-n2cnc(CNC3CCCCC3)c2)ncn1
IC50 (Acetylcholinesterase): 424 nM

SMILES: CCNC(=S)Nc1cc(NCc2ccccc2)ncn1
IC50 (Acetylcholinesterase): > 40000 nM
inhibition [1]: 10.9%

SMILES: CCNC(=S)Nc1cc(-n2cnc(CN3CCOCC3)c2)ncn1
inhibition (Rattus norvegicus [2]): 13.3%
Ratio IC50 (Rattus norvegicus [3]): > 132
Activity (umolequiv/umol) [4]: 1.48
Papp at 10 h [5]: 0.35 ×10⁻⁶ cm/s
IC50 (Acetylcholinesterase): 304 nM
IC50 [6]: > 40000 nM

SMILES: Nc1cc(-n2cccn2)ncn1
inhibition [1]: 18.9%
